Earlier results on three molecules are cited in US20190175566A1, “ANTI-TUMOR COCKTAIL COMPRISING AN ANTI-TUMOR AGENT SELECTIVE FOR TUMOR ACIDITY, AN ANTIOXIDANT, AND A P-GLYCOPROTEIN INHIBITOR” (ARION TECNOLOGIA BRASIL- GESTAO DE ATIVOS S/A, priority 2016, published 2019).

Read-outs that look alike come from different tables or passages of the source.

The conditions of series [1]: in mice, intravenous route.

Take `O=C(O)c1c2ccccc2nc2ccccc12` [9-acridine carboxylic acid]: the “toxicity (LD50)” value (route not given) is listed as 240 mg/kg and the “toxicity (LD50)” value (via intraperitoneal application (subcutaneously)) is given as 240 mg/kg.
In the case of `COC1=C(OC)C(=O)C(C/C=C(\C)CC/C=C(\C)CC/C=C(\C)CC/C=C(\C)CC/C=C(\C)CC/C=C(\C)CC/C=C(\C)CC/C=C(\C)CC/C=C(\C)CCC=C(C)C)=C(C)C1=O` [Co-Q10, Coenzyme Q10], the “toxicity (LD50)” value (orally) is roughly 20000 mg/kg.
For the molecule `COc1cc2c(cc1OC)CN(CCc1ccc(NC(=O)c3cc(OC)c(OC)cc3NC(=O)c3cnc4ccccc4c3)cc1)CC2` [Tariquidar, tariquidar], the “toxicity (LD50)” value in series [1] is listed as 300 mg/kg.
